Results: ChEMBL document CHEMBL6134888, “Challenging the "Undruggable"─Targeting STAT3 but Identifying Potent TrkA-Targeted Inhibitors” (J Med Chem, 2025)
Active and inactive are the calls of the source. The calls are words filed in the database; no cut-off is given here.

What was measured:
[1] = molecular target: T1, High affinity nerve growth factor receptor (Homo sapiens, UniProt P04629); settings: dose 100.0 nM
Description: Inhibition of TRKA (unknown origin) at 100 nM ScanElect kinase assay relative to control

KM12 = test: cells; settings: Homo sapiens, KM12, 72 h
Description: Cytotoxicity against human KM12 cells assessed as inhibition of cell viability incubated for 72 hrs by resazurin based analysis

[2] = molecular target: T1, High affinity nerve growth factor receptor; settings: dose 100.0 nM; remark: listed apart in the source
Description: Inhibition of TRKA (unknown origin) at 100 nM relative to control

[3] = molecular target: Tyrosine-protein kinase JAK2 (Homo sapiens, UniProt O60674); test: Inhibition of JAK2 (unknown origin) by Z-LYTE Kinase assay
MDA-MB-231 = test: Cytotoxicity against human MDA-MB-231 cells assessed as effect on cell viability incubated for 72 hrs by resazurin based analysis; settings: MDA-MB-231, 72 h
LS174T = test: Cytotoxicity against human LS174T cells assessed as effect on cell viability incubated for 72 hrs by resazurin based analysis
[4] = molecular target: Proto-oncogene tyrosine-protein kinase Src (Homo sapiens, UniProt P12931); test: Inhibition of SRC (unknown origin) by Z-LYTE Kinase assay
[5] = molecular target: Signal transducer and activator of transcription 3 (Homo sapiens) (UniProt P40763); test: Induction of thermal stabilization of recombinant STAT3 (127 to 668 residues)(unknown origin) assessed as change in melting temperature incubated for 3 hrs by SYPRO orange dye based DSF analysis
[6] = molecular target: Signal transducer and activator of transcription 3 (Homo sapiens) (UniProt P40763); test: Induction of thermal stabilization of recombinant STAT3 (127 to 668 residues)(unknown origin) incubated for 3 hrs by SYPRO orange dye based DSF analysis; settings: dose 10-100 µM
[7] = molecular target: T1, High affinity nerve growth factor receptor; settings: dose 10.0 nM
Description: Inhibition of TRKA (unknown origin) at 10 nM by Z-LYTE Kinase assay relative to control

[8] = molecular target: T1, High affinity nerve growth factor receptor; settings: dose 100.0 nM; remark: listed apart in the source
Description: Inhibition of TRKA (unknown origin) at 100 nM by Z-LYTE Kinase assay relative to control

[9] = molecular target: Signal transducer and activator of transcription 3 (Homo sapiens) (UniProt P40763); test: Binding affinity to STAT3 (unknown origin) SH2 domain by FP assay
[10] = molecular target: Signal transducer and activator of transcription 3 (Homo sapiens) (UniProt P40763); test: Induction of thermal stabilization of recombinant STAT3 (127 to 668 residues)(unknown origin) assessed as reduction in fluorescence intensity incubated for 3 hrs by SYPRO orange dye based DSF analysis; settings: dose 100.0 µM
[11] = molecular target: Signal transducer and activator of transcription 3 (Homo sapiens) (UniProt P40763); test: Induction of thermal stabilization of STAT3 (unknown origin) at 100 uM by thermal shift assay
[12] = molecular target: L-lactate dehydrogenase A chain (Homo sapiens, UniProt P00338); test: Inhibition of LDHA (unknown origin)
[13] = molecular target: BDNF/NT-3 growth factors receptor (Homo sapiens, UniProt Q16620); test: Binding affinity to TRKB (unknown origin) assessed as dissociation constant by KINOMEscan assay
[14] = molecular target: Signal transducer and activator of transcription 3 (Homo sapiens) (UniProt P40763); test: Inhibition of STAT3 in oncostatin M-stimulated human U3A cells at 20 uM pretreated with compound for 1 hr followed by oncostatin M induction and measured after 6 hrs by luciferase assay relative to control; assay type: cell-based

T1 sequence (P04629 33-796 limits assumed): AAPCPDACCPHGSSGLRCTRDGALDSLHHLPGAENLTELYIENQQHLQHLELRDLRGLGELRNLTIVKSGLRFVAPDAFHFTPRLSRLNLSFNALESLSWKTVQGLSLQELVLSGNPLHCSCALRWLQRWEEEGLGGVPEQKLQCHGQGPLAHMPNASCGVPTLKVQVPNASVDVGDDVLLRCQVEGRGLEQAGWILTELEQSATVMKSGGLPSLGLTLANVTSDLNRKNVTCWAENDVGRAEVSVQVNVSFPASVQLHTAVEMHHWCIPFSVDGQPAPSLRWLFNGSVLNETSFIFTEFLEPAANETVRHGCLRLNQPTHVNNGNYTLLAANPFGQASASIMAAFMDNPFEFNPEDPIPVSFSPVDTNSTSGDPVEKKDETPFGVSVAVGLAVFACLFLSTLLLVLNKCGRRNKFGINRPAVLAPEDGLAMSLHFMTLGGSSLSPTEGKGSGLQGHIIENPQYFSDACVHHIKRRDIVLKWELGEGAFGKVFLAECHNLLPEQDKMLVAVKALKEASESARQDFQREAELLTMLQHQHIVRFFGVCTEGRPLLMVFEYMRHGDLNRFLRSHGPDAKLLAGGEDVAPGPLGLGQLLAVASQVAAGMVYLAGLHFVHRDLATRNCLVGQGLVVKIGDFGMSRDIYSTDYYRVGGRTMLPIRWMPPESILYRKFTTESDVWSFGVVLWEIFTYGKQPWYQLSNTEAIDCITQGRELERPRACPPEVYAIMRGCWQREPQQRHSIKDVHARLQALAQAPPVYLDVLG
Signal transducer and activator of transcription 3 (Homo sapiens), sequence (P40763 whole entry, the tested form may be a part): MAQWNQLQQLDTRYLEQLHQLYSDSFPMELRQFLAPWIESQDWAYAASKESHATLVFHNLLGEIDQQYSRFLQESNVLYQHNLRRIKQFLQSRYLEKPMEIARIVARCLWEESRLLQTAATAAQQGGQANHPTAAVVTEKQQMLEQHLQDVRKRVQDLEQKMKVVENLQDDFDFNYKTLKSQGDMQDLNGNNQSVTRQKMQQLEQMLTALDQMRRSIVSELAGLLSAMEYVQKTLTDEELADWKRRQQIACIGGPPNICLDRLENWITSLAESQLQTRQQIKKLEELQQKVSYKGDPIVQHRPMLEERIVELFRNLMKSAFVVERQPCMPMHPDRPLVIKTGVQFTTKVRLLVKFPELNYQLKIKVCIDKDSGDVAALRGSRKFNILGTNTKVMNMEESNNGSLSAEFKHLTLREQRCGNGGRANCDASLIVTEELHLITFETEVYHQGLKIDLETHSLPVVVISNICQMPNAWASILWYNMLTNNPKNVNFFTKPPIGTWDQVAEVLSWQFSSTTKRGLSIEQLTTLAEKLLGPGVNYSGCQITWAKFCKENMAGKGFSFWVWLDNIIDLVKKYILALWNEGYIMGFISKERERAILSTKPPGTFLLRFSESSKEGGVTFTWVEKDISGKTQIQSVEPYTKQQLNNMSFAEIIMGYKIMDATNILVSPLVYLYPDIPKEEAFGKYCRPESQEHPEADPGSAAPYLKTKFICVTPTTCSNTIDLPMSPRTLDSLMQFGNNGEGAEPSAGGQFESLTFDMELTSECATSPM
Proto-oncogene tyrosine-protein kinase Src, sequence (P12931 2-536 limits assumed): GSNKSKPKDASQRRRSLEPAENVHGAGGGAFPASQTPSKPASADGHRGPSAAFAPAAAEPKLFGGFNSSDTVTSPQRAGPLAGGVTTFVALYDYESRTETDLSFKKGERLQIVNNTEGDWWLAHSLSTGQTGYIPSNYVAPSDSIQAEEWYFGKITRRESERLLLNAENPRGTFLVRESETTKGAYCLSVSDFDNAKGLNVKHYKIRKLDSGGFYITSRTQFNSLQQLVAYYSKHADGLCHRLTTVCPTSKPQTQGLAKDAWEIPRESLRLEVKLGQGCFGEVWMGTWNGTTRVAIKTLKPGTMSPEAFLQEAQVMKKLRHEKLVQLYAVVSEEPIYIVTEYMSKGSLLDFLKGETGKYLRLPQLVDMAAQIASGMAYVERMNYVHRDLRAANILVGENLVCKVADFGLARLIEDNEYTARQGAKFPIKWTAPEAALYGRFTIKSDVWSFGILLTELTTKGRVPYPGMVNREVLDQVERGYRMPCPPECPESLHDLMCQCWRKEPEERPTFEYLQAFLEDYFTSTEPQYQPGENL
Tyrosine-protein kinase JAK2, sequence (O60674 whole entry): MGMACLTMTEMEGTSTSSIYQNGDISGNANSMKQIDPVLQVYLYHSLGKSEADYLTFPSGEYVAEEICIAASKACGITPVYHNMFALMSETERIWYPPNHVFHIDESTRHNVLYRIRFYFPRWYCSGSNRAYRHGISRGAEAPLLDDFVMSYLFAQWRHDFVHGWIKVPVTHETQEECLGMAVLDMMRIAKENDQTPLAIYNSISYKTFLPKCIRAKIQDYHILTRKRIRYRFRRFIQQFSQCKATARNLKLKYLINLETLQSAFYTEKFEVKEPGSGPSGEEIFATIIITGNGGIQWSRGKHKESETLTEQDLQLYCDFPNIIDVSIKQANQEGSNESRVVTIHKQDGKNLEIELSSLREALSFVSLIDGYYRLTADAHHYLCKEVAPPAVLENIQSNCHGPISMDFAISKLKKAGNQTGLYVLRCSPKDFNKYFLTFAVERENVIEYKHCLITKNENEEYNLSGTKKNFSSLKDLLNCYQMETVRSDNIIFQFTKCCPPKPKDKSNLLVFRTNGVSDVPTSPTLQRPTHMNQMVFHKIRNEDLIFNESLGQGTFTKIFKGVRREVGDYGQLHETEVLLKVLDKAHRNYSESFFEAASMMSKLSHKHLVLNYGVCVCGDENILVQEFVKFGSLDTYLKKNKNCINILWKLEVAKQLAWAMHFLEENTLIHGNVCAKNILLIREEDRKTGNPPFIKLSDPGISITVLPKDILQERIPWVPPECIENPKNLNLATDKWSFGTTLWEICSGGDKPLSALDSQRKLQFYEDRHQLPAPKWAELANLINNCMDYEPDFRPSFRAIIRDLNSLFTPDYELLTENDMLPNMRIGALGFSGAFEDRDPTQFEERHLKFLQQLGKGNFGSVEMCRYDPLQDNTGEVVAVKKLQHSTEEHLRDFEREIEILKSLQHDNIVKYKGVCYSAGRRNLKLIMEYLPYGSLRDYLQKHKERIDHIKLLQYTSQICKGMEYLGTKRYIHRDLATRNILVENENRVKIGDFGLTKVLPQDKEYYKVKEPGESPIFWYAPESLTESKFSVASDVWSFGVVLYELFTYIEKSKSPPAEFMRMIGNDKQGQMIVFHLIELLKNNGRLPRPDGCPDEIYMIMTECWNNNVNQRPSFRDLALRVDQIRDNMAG
BDNF/NT-3 growth factors receptor, sequence (Q16620 whole entry): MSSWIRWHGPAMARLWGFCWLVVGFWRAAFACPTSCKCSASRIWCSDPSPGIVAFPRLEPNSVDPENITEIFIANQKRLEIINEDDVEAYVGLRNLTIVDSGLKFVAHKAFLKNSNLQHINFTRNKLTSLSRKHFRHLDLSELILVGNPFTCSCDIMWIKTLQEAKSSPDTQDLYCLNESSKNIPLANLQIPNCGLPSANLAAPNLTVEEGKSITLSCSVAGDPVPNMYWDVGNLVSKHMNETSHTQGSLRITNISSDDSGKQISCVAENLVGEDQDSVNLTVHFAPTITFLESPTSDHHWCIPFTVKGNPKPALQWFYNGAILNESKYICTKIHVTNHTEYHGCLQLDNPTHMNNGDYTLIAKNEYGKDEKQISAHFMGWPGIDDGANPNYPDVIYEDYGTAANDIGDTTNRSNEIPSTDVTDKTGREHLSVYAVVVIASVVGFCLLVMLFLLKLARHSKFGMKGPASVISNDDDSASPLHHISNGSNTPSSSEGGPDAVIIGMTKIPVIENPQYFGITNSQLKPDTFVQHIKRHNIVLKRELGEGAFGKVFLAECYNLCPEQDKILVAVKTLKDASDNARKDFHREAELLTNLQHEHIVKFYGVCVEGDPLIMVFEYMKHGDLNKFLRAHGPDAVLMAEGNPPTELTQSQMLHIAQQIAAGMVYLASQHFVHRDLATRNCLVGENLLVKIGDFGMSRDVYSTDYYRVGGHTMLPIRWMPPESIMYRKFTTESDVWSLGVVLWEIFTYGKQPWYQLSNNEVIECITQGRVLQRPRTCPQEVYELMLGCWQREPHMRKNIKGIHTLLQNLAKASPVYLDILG

SMILES | inhibition [1] [%] | inhibition [2] [%] | other results
CN(C)c1cccc(-c2cnc(N)c(NCc3cccnc3)n2)c1 | 31 | 50 | IC50 (KM12): 3700 nM
C[C@@H](Nc1nc(-c2cccc(N(C)C)c2)cnc1N)c1ccccc1 | – | – | IC50 [3]: 530 nM; IC50 (KM12): < 300 nM; IC50 (MDA-MB-231): > 10000 nM; IC50 (LS174T): > 10000 nM; IC50 [4]: 1110 nM
CN(C)c1cccc(-c2cnc(N)c(NCc3cccc(-c4ccccc4)c3)n2)c1 | 5 | 42 | –
CN(C)c1cccc(-c2cnc(N)c(NCc3cccc(C(F)(F)F)c3)n2)c1 | 4 | 28 | –
CN(C)c1cccc(-c2cnc(N)c(NCc3ccccc3)n2)c1 | 21 | 79 | –
COC(=O)c1cccc(CNc2nc(-c3cccc(N(C)C)c3)cnc2N)c1 | 6 | 48 | –
C[C@@H](Nc1nc(-c2cc(C(F)(F)F)cc(C(F)(F)F)c2)cnc1N)c1ccccc1 | – | – | ΔTm [5]: 0.9 °C; Activity [6]: Dose-dependent-effect
C[C@@H](Nc1nc(-c2cccc(C(=O)N(C)C)c2)cnc1N)c1ccccc1 | – | – | inhibition [7]: 34%; inhibition [8]: 74%
C[C@H](Nc1nc(-c2cc(C(F)(F)F)cc(C(F)(F)F)c2)cnc1N)c1ccccc1 | – | – | ΔTm [5]: 0.9 °C; Activity [6]: Dose-dependent-effect
C[C@H](Nc1nc(-c2cccc(C(=O)N(C)C)c2)cnc1N)c1ccccc1 | – | – | inhibition [7]: 10%; inhibition [8]: 0%
Cc1ccc(CNc2nc(-c3cccc(N(C)C)c3)cnc2N)cc1C | 6 | 35 | –
Cc1cccc(CNc2nc(-c3cccc(N(C)C)c3)cnc2N)c1 | 6 | 26 | –
Nc1ncc(-c2cc(C(F)(F)F)cc(C(F)(F)F)c2)nc1NCc1ccco1 | – | – | ΔTm [5]: 0.9 °C; Activity [6]: Dose-dependent-effect
COC(=O)c1cccc(-c2cnc(N)c(NC(C)c3ccccc3)n2)c1 (racemic) | 28 | 55 | Activity [9]: Active; Activity [10]: Dose-dependent-effect; Activity [11]: Active; IC50 [12]: 4000 nM
CC(Nc1nc(-c2cccc(C(=O)N(C)C)c2)cnc1N)c1ccccc1 (racemic) | 41 | 67 | IC50 (KM12): < 300 nM
CC(=O)Nc1cccc(-c2cnc(N)c(NC(C)c3ccccc3)n2)c1 (racemic) | – | – | IC50 [3]: 361 nM; Kd [13]: 60 nM; IC50 [4]: 1560 nM
CC(Nc1nc(-c2cc(C(F)(F)F)cc(C(F)(F)F)c2)cnc1N)c1ccccc1 (racemic) | 4 | 10 | Activity [10]: Dose-dependent-effect; IC50 (KM12): 5300 nM; Activity [11]: Active; inhibition [14]: 40%
CC(C)Oc1cccc(-c2cnc(N)c(NC(C)c3ccccc3)n2)c1 (racemic) | 2 | 21 | Activity [9]: Active; Activity [10]: Dose-dependent-effect; Activity [11]: Active
CC(Nc1nc(-c2cc(Cl)cc(Cl)c2)cnc1N)c1ccccc1 (racemic) | 0 | – | Activity [9]: Active; Activity [10]: Dose-dependent-effect; Activity [11]: Active
CC(Nc1nc(-c2ccc(-c3ccccc3)cc2)cnc1N)c1ccccc1 (racemic) | 0 | – | –

SMILES | inhibition [1] [%] | inhibition [2] [%] | other results
CC(Nc1nc(-c2ccc(F)cc2)cnc1N)c1ccccc1 (racemic) | 4 | – | Activity [9]: Active; Activity [10]: Dose-dependent-effect; Activity [11]: Active
CC(Nc1nc(-c2ccc(NS(C)(=O)=O)cc2)cnc1N)c1ccccc1 (racemic) | 23 | 38 | –
CC(Nc1nc(-c2ccc3c(c2)OCO3)cnc1N)c1ccccc1 (racemic) | 14 | – | –
CC(Nc1nc(-c2cccc(F)c2)cnc1N)c1ccccc1 (racemic) | 3 | – | Activity [9]: Active; Activity [10]: Dose-dependent-effect; Activity [11]: Active
CC(Nc1nc(-c2cccc(N(C)C)c2)cnc1N)c1ccc(S(C)(=O)=O)cc1 (racemic) | 4 | 46 | –
CC(Nc1nc(-c2cccc(N(C)C)c2)cnc1N)c1cccc(C(F)(F)F)c1 (racemic) | 11 | 44 | –
CC(Nc1nc(-c2cccc(O)c2)cnc1N)c1ccccc1 (racemic) | 0 | – | –
CC(Nc1nc(-c2cccc([N+](=O)[O-])c2)cnc1N)c1ccccc1 (racemic) | 28 | 55 | Activity [9]: Active; Activity [10]: Dose-dependent-effect; Activity [11]: Active
CC(Nc1nc(-c2cccc3ccccc23)cnc1N)c1ccccc1 (racemic) | 14 | – | –
CC(Nc1nc(-c2ccccc2)cnc1N)c1ccccc1 (racemic) | 2 | 38 | –
CCC(Nc1nc(-c2cccc(N(C)C)c2)cnc1N)c1ccccc1 (racemic) | 24 | 73 | –
CN(C)c1cccc(-c2cnc(N)c(NC(c3ccccc3)C(C)(C)C)n2)c1 (racemic) | 11 | 58 | –
COC(=O)c1ccc(-c2cnc(N)c(NC(C)c3ccccc3)n2)cc1 (racemic) | 36 | – | –
COc1ccc(C(C)Nc2nc(-c3cccc(N(C)C)c3)cnc2N)cc1 (racemic) | 7 | 17 | –
COc1cccc(C(C)Nc2nc(-c3cccc(N(C)C)c3)cnc2N)c1 (racemic) | 41 | 66 | –
COc1cccc(OC)c1-c1cnc(N)c(NC(C)c2ccccc2)n1 (racemic) | 0 | – | Activity [9]: Active; Activity [10]: Dose-dependent-effect; Activity [11]: Active
Cc1cc(C)cc(-c2cnc(N)c(NC(C)c3ccccc3)n2)c1 (racemic) | 2 | – | –
Cc1ccc(C(C)Nc2nc(-c3cccc(N(C)C)c3)cnc2N)cc1 (racemic) | 10 | 11 | –
O=C(Nc1cnn2ccc(N3CCC[C@@H]3c3cc(F)ccc3F)nc12)N1CC[C@H](O)C1 [LAROTRECTINIB] | – | – | IC50 (KM12): 3.8 nM; IC50 (MDA-MB-231): > 10000 nM; IC50 (LS174T): > 10000 nM
